Among the data in ChEMBL document CHEMBL1158871, “Minor Bioactive Dihydrophenanthrenes from Juncus effusus” (1997) are inhibition of growth values, retold here.

Assay type in all cases: functional
What all share (settings): UTEX 1648, light or radiation study, read-out: GI

For assay [1], the system named is Selenastrum capricornutum. Kind of assay: Antialgal activity against Selenastrum capricornutum UTEX 1648 assessed as growth inhibition at 5 uM exposed to 150 uEs'-1m'-2 irradiation under 16 hrs light/8 hrs dark photoperiod conditions relative to control.
The test system of assay [2] is Selenastrum capricornutum. Kind of assay: Antialgal activity against Selenastrum capricornutum UTEX 1648 assessed as growth inhibition at 50 uM exposed to 150 uEs'-1m'-2 irradiation under 16 hrs light/8 hrs dark photoperiod conditions relative to control.
The subject of assay [3] is Selenastrum capricornutum. Kind of assay: Antialgal activity against Selenastrum capricornutum UTEX 1648 assessed as growth inhibition at 0.1 mM exposed to 150 uEs'-1m'-2 irradiation under 16 hrs light/8 hrs dark photoperiod conditions relative to control.
The subject of assay [4] is Selenastrum capricornutum. Kind of assay: Antialgal activity against Selenastrum capricornutum UTEX 1648 assessed as growth inhibition at 10 uM exposed to 150 uEs'-1m'-2 irradiation under 16 hrs light/8 hrs dark photoperiod conditions relative to control.

`C=Cc1c(CO)ccc2c1-c1ccc(O)c(C)c1CC2`: the inhibition of growth at 5 µM in assay [1] was found to be 0%. Also, in assay [2], the inhibition of growth at 50 µM was 40%. Moreover, in assay [3], the inhibition of growth at 100 µM was 64%. Moreover, in assay [4], the inhibition of growth at 10 µM worked out at 5%.
On the same counts, the results for `Cc1c(O)ccc2c1CCc1c(C)c(O)cc(C(C)O)c1-2` (stereo not drawn) are 5%, 52%, 75% and 20%.
`Cc1cc(CO)c2c(c1)CCc1c-2ccc(O)c1C`: the inhibition of growth at 5 µM in assay [1] worked out at 7%. Besides, the inhibition of growth at 50 µM in assay [2] was 50%. For the same compound, the inhibition of growth at 100 µM in assay [3] was found to be 80%. Also, the inhibition of growth at 10 µM in assay [4] was determined as 20%.
Take `COc1cc(CO)c2c(c1C)CCc1c-2ccc(O)c1C`: in assay [1], the inhibition of growth at 5 µM worked out at 0%. Further, in assay [2], the inhibition of growth at 50 µM came out at 55%. For the same compound, the inhibition of growth at 100 µM in assay [3] was 80%. The inhibition of growth at 10 µM in assay [4] stood at 18%.
As to `Cc1cc2c(c3c1OC(O)C3O)-c1ccc(O)c(C)c1CC2` (stereo not drawn), in assay [1], the inhibition of growth at 5 µM came to 0%. Also, the inhibition of growth at 50 µM in assay [2] came to 10%. In addition, the inhibition of growth at 100 µM in assay [3] turned out to be 20%. Also, the inhibition of growth at 10 µM in assay [4] is 0%.
Turning to `Cc1c(O)ccc2c1CCc1c(C)c(O)cc(CO)c1-2`, the inhibition of growth at 5 µM in assay [1] came out at 4%. Moreover, in assay [2], the inhibition of growth at 50 µM was 40%. In assay [3], the inhibition of growth at 100 µM came to 70%. Besides, the inhibition of growth at 10 µM in assay [4] stood at 10%.
As for `C=Cc1cc(CO)cc2c1-c1ccc(O)c(C)c1CC2`, the inhibition of growth at 5 µM in assay [1] is 0%. In addition, the inhibition of growth at 50 µM in assay [2] came out at 38%. In assay [3], the inhibition of growth at 100 µM came to 57%. Besides, in assay [4], the inhibition of growth at 10 µM turned out to be 0%.
